A short description of the series: FFA solubility at different formulation pH at constant PS20 concentration, fit to modified Henderson-Hasselbalch equation. Format: physicochemical. The note with it: constant of the 'pH term' of the FFA solubility model (Equation 1); for solubility: formulation containing PS20, aqueous with cosolvent or surfactant or cyclodextrin, read-out: Solubility of the non-ionized FFA (β1); for pKa: formulation containing polysorbate 20 (PS20), read-out: Experimentally determined pKa (β2). The protocol: To create the model, first, FFA solubility was measured at different formulation pH's at a constant PS20 concentration. […] Second, FFA solubility was measured at different PS20 concentrations at a constant pH.

The structures appear in SMILES notation. ≈ marks a conversion by molar mass, not a printed value.

`CCCCCCCCCCCCCC(=O)O` [Myristic (C14) Acid, myristic acid]: the solubility (usually the concentration that dissolves in the medium under given conditions) was 3.87 µg/mL (≈ 16.9 µM) and the pKa (in general, the negative logarithm of the acid dissociation constant) was 6.67.
As for `CCCCCCCCCCCC(=O)O` [Lauric (C12) Acid, lauric acid], the solubility was found to be 9.97 µg/mL (≈ 49.8 µM) and the pKa turned out to be 5.71.

The values above are taken from patent US12691178B2, “Polysorbate mixtures having modified fatty acid ester distribution” (Genentech, Inc., priority 2020, dated 2026).
